Laboratory results: patent EP4775579A1, “BERBERRUBINE-RELATED COMPOUND” (Mitogenic Co., Ltd., priority 2023, dated 2025)
Structures can show the parent of a compound that is named as a salt.

Experiments:
[1] = physchem
Text: Determine the minimum amount (mL) of the solvent that can completely dissolve the berberrubine-related compound by changing the volume of the solvent, as appropriate. Calculate the solubility (g/mL) of each berberrubine-related compound in each solvent from the used berberrubine-related compound (1 g) and the minimum volume (mL) of the solvent.
By changing the volume of the solvent, as appropriate, the minimum amount (mL) of the solvent that can completely dissolve the berberrubine-related compound was determined. From the used berberrubine-related compound (1 g) and the minimum volume (mL) of the solvent, the solubility (g/mL) of each berberrubine-related compound in each solvent was determined.

[2] = tested on: C2C12 cells; test: Oxygen consumption rate (OCR) of C2C12 cells, extracellular flux analyzer (basal respiration, ATP synthesis, maximal respiration); assay type: cell-based; conditions: 30 µM
Method: A DMSO solution of 3.5 mg/mL of quinoid-type berberrubine was added to C2C12 cells in Dulbecco's modified Eagle (DMEM) medium containing 10% fetal bovine serum (FBS), penicillin, and streptomycin, such that the final concentration was 30 µM (FIG. 4A).
As a control, the same amount of water was added to the C2C12 cells described above.
During this period, the oxygen consumption rate (OCR) of the C2C12 cells was measured over time using an extracellular flux analyzer.
The OCR during the period between the addition of the ATP synthase inhibitor and the addition of the uncoupling agent, the OCR during the period between the addition of the uncoupling agent and the addition of the mitochondrial complex inhibitor, and the OCR in the period after the addition of the mitochondrial complex inhibitor each correlate with the amount of basal respiration, ATP synthesis, and maximal respiration in mitochondria. Thus, the amount of basal respiration, ATP synthesis, and maximal respiration in mitochondria were evaluated using OCR at the points of 30, 60, and 90 minutes as indicators.

[3] = tested on: cardiac failure and myocardial fibrosis markers; test: Quantitative RT-PCR of cardiac failure and myocardial fibrosis markers in aged mice; assay type: in vivo; conditions: mice from 24 months of age, 12 weeks after start; adduct 0.5 mg/mL in drinking water; quinoid-type 0.5 mg/mL in diet
Text: Moreover, the results of quantifying cardiac failure and myocardial fibrosis markers in the mice 12 weeks after the start of administration by means of quantitative RT-PCR are shown in FIG. 18.
Moreover, the results of quantifying cardiac failure and myocardial fibrosis markers in the mice 12 weeks after the start of administration by means of quantitative RT-PCR are shown in FIG. 21.

[4] = tested on: Mouse fetal fibroblast (MEF) cells; test: Tom20 immunofluorescence staining, content of mitochondria in MEF cells; assay type: cell-based; conditions: 30 µM, 48 hours after addition
Method: (§1) 48 hours after addition, Tom20, which is a mitochondrial outer membrane protein, was detected by immunofluorescence staining. For the detection of Tom20, the anti-Tom20 antibody (Santa Cruz, sc-11415) was used.

[5] = tested on: brown fat cells; test: TMRM/Hoechst fluorescence microscopy of primary cultured brown fat cells; assay type: cell-based, mice; conditions: 30 µM, 48 hours after addition
Method: Brown fat cells removed from fetal C57BL/6NJcl mice were cut into pieces with scissors in an isolation buffer solution (0.123 M of sodium chloride, 5 mM of glucose, 5 mM of potassium chloride, 1.3 mM of calcium chloride, 100 mM of HEPES-NaOH (pH 7.4), 4% BSA) containing 1 mg/mL of collagenase, and warmed in a water bath at 37 °C for 30 minutes. After removal of aggregates using a cell strainer, the cells were collected by centrifugation at 1000 x g for 5 minutes and suspended in a DMEM medium containing 20% FBS, thereby preparing primary cultured cells of the brown fat cells.
Moreover, as a control, the same amount of DMSO as in the DMSO solution of quinoid-type berberrubine was added to the primary cultured cells.
The primary cultured cells cultured for 48 hours after addition had the nuclei stained with Hoechst (manufactured by NACALAI TESQUE, INC.) and mitochondria stained with tetramethylrhodamine methyl ester (TMRM, manufactured by Thermo Fisher Scientific) and then were observed under a fluorescence microscope (magnification: 60x).

[6] = tested on: C57BL/6N24 mice; test: M-mode echocardiography in aged mice; assay type: in vivo; conditions: mice from 24 months of age, 12 weeks after start; adduct 0.5 mg/mL in drinking water; quinoid-type 0.5 mg/mL in diet
Text: The results of echocardiography using the M-mode echocardiography technique on the mice 12 weeks after the start of administration are shown in FIG. 16.
The results of echocardiography using the M-mode echocardiography technique on the mice 12 weeks after the start of administration are shown in FIG. 20.

[7] = tested on: mice irradiated with UV; test: Skin of UV-irradiated mice, visual observation; assay type: in vivo; conditions: oral, 1.25% agar containing 0.35 mg/mL for 2 months; UV 3 times a week for 8 weeks
Method: Male C57BL/6NJcl mice aged 8 weeks were orally administered 1.25% agar containing 0.35 mg/mL of quinoid-type berberrubine or 1.25% agar not containing quinoid-type berberrubine (control) for 2 months. The skin of the mice during the same period was irradiated with UV 3 times a week for 8 weeks. The irradiation dose was 1 mW/cm^2 for 70 seconds (70 mJ/cm^2) in the first week, 1 mW/cm^2 for 80 seconds (80 mJ/cm^2) in the second week, 1 mW/cm^2 for 90 seconds (90 mJ/cm^2) in the third week, and 1 mW/cm^2 for 100 seconds (100 mJ/cm^2) in the fourth week and thereafter. At the end of the same period, the skin of the mice was visually observed.

[8] = tested on: mitochondrial mRNA; test: Quantitative RT-PCR of mitochondrial mRNA in aged mice; assay type: in vivo; conditions: mice from 24 months of age, 12 weeks after start; adduct 0.5 mg/mL in drinking water; quinoid-type 0.5 mg/mL in diet
Text: Moreover, the results of quantifying the mRNA expression of mitochondria in the mice 12 weeks after the start of administration by means of quantitative RT-PCR are shown in FIG. 19.
Moreover, the results of quantifying the expression of Mitol which is mRNA of mitochondria in the mice 12 weeks after the start of administration by means of quantitative RT-PCR are shown in FIG. 22.

[9] = tested on: mouse spermatozoa; test: Sperm motility and MitoTracker staining after oral administration to mice; assay type: in vivo
Method: Male C57BL/6NJcl mice aged 9 to 10 weeks were orally administered 1.25% agar containing 0.35 mg/mL of quinoid-type berberrubine or 1.25% agar not containing quinoid-type berberrubine for 2 weeks. The oral administration was performed by placing a container containing this agar in a cage with the mice, such that the mice could constantly ingest this agar from the container (subsequent oral administration of agar to mice was performed in the same manner). At 20 weeks of age, the mice were anesthetized isoflurane (KANTO KAGAKU), euthanized by cervical dislocation, and had their testes and epididymis removed. The removed epididymis was cut into pieces with scissors in 1 mL of phosphate buffered saline (PBS) and then placed at room temperature for 1 hour, thereby preparing sperm samples. 20 µL of the sample was transferred to a glass bottom dish, and mitochondria and nuclei were stained by MitoTracker (manufactured by Thermo Fisher Scientific) and Hoechst (manufactured by NACALAI TESQUE, INC.), respectively.

[10] = tested on: HeLa cells; test: Cancer cell growth, trypan blue cell count; assay type: cell-based, human; conditions: 30 µM; 24, 48, and 72 hours after addition
Method: Cells were collected at 24, 48, and 72 hours after addition and stained with trypan blue, and the number of cells were measured. Note that the HeLa cells are cell lines derived from human uterus cancer cells and are widely used as model cells for cancer.

[11] = tested on: mitochondria isolated from cardiomyocytes of mice; test: OCR of mitochondria isolated from cardiomyocytes of treated mice, flux analyzer; assay type: in vivo; conditions: 12 weeks after start; adduct 0.5 mg/mL in drinking water; quinoid-type 0.5 mg/mL in diet
Text: Moreover, mitochondria were isolated from cardiomyocytes of mice 12 weeks after the start of administration using a standard method. 23A and 23B.

[12] = tested on: mitochondrial respiratory chain supercomplexes; test: Formation of mitochondrial respiratory chain supercomplexes, FRET between GFP-complex I and RFP-complex IV in C2C12 cells; assay type: cell-based; conditions: 3, 10, 30, or 60 µM; 24 hours after addition
Method: At the point of 24 hours after addition, formation of a mitochondrial respiratory chain supercomplex was detected by detecting FRET between GFP and RFP, resulting from the association of complex I and complex IV.

[13] = tested on: tau proteins; test: Western blotting of tau proteins in Neuro2A cells with aggregated tau; assay type: cell-based; conditions: 30 µM, 8 hours of culturing
Method: Neuro2A cells were introduced with ΔN-P301Ltau-CRY2olig by transfection. One day after introduction, nocodazole was added to stop the cell cycle, and subsequent blue light irradiation for 24 hours induced the aggregation of tau proteins in the cells.
After 8 hours of culturing after addition, the tau proteins in the cells were detected by means of Western blotting using an antibody against phosphorylated Tau at position S396 (pS396), an antibody against phosphorylated Tau at position S422 (pS422), an antibody against full length Tau (JM), and an antibody against the C-terminal region of Tau (tauC). The tau proteins were detected at around 100 kDa.

[14] = literature value; cited from earlier work
[15] = tested on: mouse visceral fat; test: Accumulation of visceral fat in mice; assay type: in vivo; conditions: male mice aged 50 weeks; oral, 1.25% agar containing 0.35 mg/mL for 2 months
Method: Male C57BL/6NJcl mice aged 50 weeks were orally administered 1.25% agar containing 0.35 mg/mL of quinoid-type berberrubine or 1.25% agar not containing quinoid-type berberrubine (control) for 2 months. At the end of the period, accumulation of visceral fat in the mice was observed.

[16] = tested on: PINK1-knockout MEF cells; test: Tom20 immunofluorescence staining, content of mitochondria in PINK1-knockout MEF cells (Parkinson's disease model); assay type: cell-based, Mouse; conditions: 30 µM, 48 hours after addition
Method: as §1
Note that PINK1 is the gene responsible for Parkinson's disease, and PINK1 deficiency causes mitochondrial dysfunction associated with Parkinson's disease. Therefore, PINK1-knockout MEF cells are used as a model for patients affected by Parkinson's disease.

Structure (SMILES): COc1ccc2cc3n(cc-2c1=O)CCc1cc2c(cc1-3)OCO2 [berberrubine acetate salt]
- solubility at 0.5 h ([1]; methanol): 34 mg/mL
- solubility at 0.5 h ([1]; water): 30 mg/mL

Structure (SMILES): COc1ccc2cc3n(cc-2c1=O)CCc1cc2c(cc1-3)OCO2 [quinoid-type berberrubine, 10-methoxy-5,6-dihydro-9H-[1,3]dioxolo[4,5-g]isoquinolino [3,2-a]isoquinolin-9-one]
- basal respiration in mitochondria, enhancement compared to the controls ([2]; 24 hours after addition, OCR at 30 minutes): about 4 fold
- ATP synthesis in mitochondria, enhancement compared to the controls ([2]; 24 hours after addition, OCR at 60 minutes): about 4 fold
- maximal respiration in mitochondria, enhancement compared to the controls ([2]; 24 hours after addition, OCR at 90 minutes): about 4 fold
- ATP synthesis in mitochondria, compared to the addition of the berberrubine acetic acid adduct ([2]; C2C12 cells): about 2.5 fold
- basal respiration in mitochondria, compared to the addition of the berberrubine acetic acid adduct ([2]; C2C12 cells): about 2.5 fold
- maximal respiration in mitochondria, compared to the addition of the berberrubine acetic acid adduct ([2]; C2C12 cells): about 2.6 fold
- expression levels of cardiac failure markers (Nppa, Nppb, and Myh7) compared to the control [3]: reduced
- expression levels of myocardial fibrosis markers (Collagen1 and Ctgf) compared to the control [3]: reduced
- content of mitochondria in the cells compared to the control [4]: increased
- increase in amount of active mitochondria having normal membrane potential, compared to the addition of a berberrubine acetic acid adduct [5]: to a greater extent
- staining of mitochondria by TMRM (active mitochondria having normal membrane potential) [5]: strong staining
- % left ventricular fractional shortening (%FS) compared to the control [6]: increase
- left ventricular ejection fraction (LVEF) compared to the control [6]: increase
- left ventricular end-diastolic diameter (LVDd) compared to the control [6]: decrease
- left ventricular end-systolic diameter (LVDs) compared to the control [6]: decrease
- left ventricular filling pressure (E/e') compared to the control [6]: decrease
- number of wrinkles compared to mice not administered [7]: fewer
- skin darkening compared to mice not administered [7]: inhibited
- wrinkle depths compared to mice not administered [7]: shallower
- expression of Mitol compared to the control [8]: increase
- number of spermatozoa in which mitochondria were stained with MitoTracker, increase compared to the control ([9]; 1.25% agar containing 0.35 mg/mL for 2 weeks): about twofold
- sperm motility compared to the control ([9]; quinoid-type: 1.25% agar containing 0.35 mg/mL for 2 weeks, adduct: 2 mg/mL aqueous solution): more actively motile
- ratio of the number of HeLa cells after administration with respect to the number of HeLa cells in the control [10]: decreased over time
- oxygen consumption rate (OCR) in State 2 (ADP-limited state) compared to the control [11]: increased
- oxygen consumption rate (OCR) in State 3 (activated respiratory state) compared to the control [11]: increased
- oxygen consumption rate (OCR) in State 3u (uncoupled state) compared to the control [11]: increased
- oxygen consumption rate (OCR) in State 4o (oligomycin-induced state) compared to the control [11]: increased
- formation of mitochondrial respiratory chain supercomplexes (FRET between GFP and RFP) [12]: promoted the formation of mitochondrial respiratory chain supercomplexes in a concentration-dependent manner
- expression level of full-length Tau [13]: no significant changes
- ratio of the expression level of phosphorylated Tau at position S396 with respect to that of full-length Tau (pS396-tau/JM), reduction compared to the control [13]: about 35%
- ratio of the expression level of phosphorylated Tau at position S422 with respect to that of full-length Tau (pS422-tau/JM), reduction compared to the control [13]: no significant changes
- SOLUBILITY (g/mL) OF BERBERRUBINE-RELATED COMPOUND IN 1 mL OF SOLVENT, WATER [14]: 0.000013 (LITERAT URE VALUE) g/mL
- visceral fat accumulation compared to mice not administered [15]: inhibited
- content of mitochondria in the cells [16]: increased
